Measurements as given in patent US20100004301A1, “Benzoxazoles Useful in the Treatment of Inflammation” (priority 2006, published 2010).

target: T1, mPGES-1 (Homo sapiens, UniProt O14684); test: mPGES-1 enzyme assay (conversion of PGH2 to PGE2, HPLC analysis); assay type: biochemical; settings: mPGES-1 expressed in E. coli, membrane fraction; 25 min preincubation, 60 s PGH2 reaction, room temperature
T1 construct: made in house; host or cells: E. coli
T1 sequence (O14684 1-152): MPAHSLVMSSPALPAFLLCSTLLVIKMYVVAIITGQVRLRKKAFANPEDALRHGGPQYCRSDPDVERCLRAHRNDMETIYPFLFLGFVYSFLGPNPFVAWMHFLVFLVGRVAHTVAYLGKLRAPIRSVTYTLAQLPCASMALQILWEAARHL
Description: In the assay mPGES-1 catalyzes the reaction where the substrate PGH2 is converted to PGE2. mPGES-1 is expressed in E. coli and the membrane fraction is dissolved in 20 mM NaPi-buffer pH 8.0 and stored at −80° C. In the assay mPGES-1 is dissolved in 0.1M KPi-buffer pH 7.35 with 2.5 mM glutathione. The stop solution consists of H2O/MeCN (7/3), containing FeCl2 (25 mM) and HCl (0.15 M). The assay is performed at room temperature in 96-well plates. Analysis of the amount of PGE2 is performed with reversed phase HPLC (Waters 2795 equipped with a 3.9×150 mm C18 column). The mobile phase consists of H2O/MeCN (7/3), containing TFA (0.056%), and absorbance is measured at 195 nm with a Waters 2487 UV-detector.
The following is added chronologically to each well: • 1. 100 μL mPGES-1 in KPi-buffer with glutathione. Total protein concentration: 0.02 mg/mL. • 2. 1 μL inhibitor in DMSO. Incubation of the plate at room temperature for 25 minutes. • 3. 4 μL of a 0.25 mM PGH2 solution. Incubation of the plate at room temperature for 60 seconds. • 4. 100 μL stop solution. • 180 μL per sample is analyzed with HPLC.

Q: How did the IC50 turn out when `Cc1cc(C)cc(-c2cc(-c3nc4cc(C)ccc4o3)cc(NC(=O)c3ccccc3C(F)(F)F)c2N)c1` [Example 5, N-[2-Amino-3′,5′-dimethyl-5-(5-methylbenzoxazol-2-yl)biphenyl-3-yl]-2-trifluoromethylbenzamide] was run?
A: 130 nM

Q: With `CC(C)Oc1ccc(-c2ccc3oc(-c4cc(NS(=O)(=O)c5cc(Cl)ccc5Cl)ccc4Cl)nc3c2)cc1` [Example 4, 2,5-Dichloro-N-{4-chloro-3-[5-(4-isopropoxyphenyl)benzoxazol-2-yl]phenyl}benzenesulfonamide] as the compound, how does the IC50 read?
A: 600 nM

Q: `CC(C)(C)c1ccc2oc(-c3cc(COc4cccc(Cl)c4)cc(NC(=O)c4ccccc4C(F)(F)F)c3)nc2c1` [Example 7, N-[3-(5-tert-Butylbenzoxazol-2-yl)-5-(3-chlorophenoxymethyl)phenyl]-2-trifluoromethylbenzamide] was tested. Which IC50 did it give?
A: 270 nM
